Measured values: the supplement of paper PMC10307832

Key:
Assay in all cases: relative viability (nuclei count vs DMSO), 5 days (fraction); higher = more cells survive
[1] = compound: Cc1ccc(F)c(NC(=O)Nc2ccc(-c3cccc4[nH]nc(N)c34)cc2)c1 [Linifanib] + COc1cc2c(Oc3ccc(NC(=O)C4(C(=O)Nc5ccc(F)cc5)CC4)cc3F)ccnc2cc1OCCCN1CCOCC1 [Foretinib] (partner 0.25 µM)
How it was run: (§1)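 Values are medians from duplicate plates. Each reflects relative viability, defined as the nuclei count of treated wells over that of vehicle wells. Lung cancer cell lines in 1536-well plates were pin-tool dosed one day after seeding with one drug alone or with a fixed anchor-drug dose plus five library-drug doses (not always all listed) in √10 steps, then fixed, stained and imaged at 4× after 5 days.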

[2] = compound: Cc1ccc(F)c(NC(=O)Nc2ccc(-c3cccc4[nH]nc(N)c34)cc2)c1 [Linifanib] + CC(C)C[C@H](NC(=O)[C@H](Cc1ccccc1)NC(=O)c1cnccn1)B(O)O [Bortezomib] (partner 0.002 µM)
How it was run: as §1

[3] = compound: Cc1ccc(F)c(NC(=O)Nc2ccc(-c3cccc4[nH]nc(N)c34)cc2)c1 [Linifanib] + Nc1ncn([C@H]2C[C@H](O)[C@@H](CO)O2)c(=O)n1 [Decitabine] (partner 2 µM)
How it was run: as §1

[4] = compound: Cc1ccc(F)c(NC(=O)Nc2ccc(-c3cccc4[nH]nc(N)c34)cc2)c1 [Linifanib] + Cc1cc(Nc2cc(N3CCN(C)CC3)nc(Sc3ccc(NC(=O)C4CC4)cc3)n2)n[nH]1 [Tozasertib] (partner 0.1 µM)
How it was run: as §1

[5] = compound: Cc1ccc(F)c(NC(=O)Nc2ccc(-c3cccc4[nH]nc(N)c34)cc2)c1 [Linifanib] + COc1cccc2cc(-c3nc([C@H]4CC[C@H](C(=O)O)CC4)n4ncnc(N)c34)[nH]c12 [OSI-027] (partner 0.5 µM)
How it was run: as §1

[6] = compound: Cc1ccc(F)c(NC(=O)Nc2ccc(-c3cccc4[nH]nc(N)c34)cc2)c1 [Linifanib] + Nc1nc2[nH]cc(CCc3ccc(C(=O)N[C@@H](CCC(=O)O)C(=O)O)cc3)c2c(=O)[nH]1 [Pemetrexed] (partner 0.2 µM)
How it was run: as §1

Cell Line | relative viability ([1]; first compound 0.03162 µM) | relative viability ([1]; first compound 0.1 µM) | relative viability ([1]; first compound 0.3162 µM) | relative viability ([2]; first compound 0.03162 µM) | relative viability ([2]; first compound 0.1 µM) | relative viability ([2]; first compound 0.3162 µM) | relative viability ([3]; first compound 0.03162 µM) | relative viability ([3]; first compound 0.1 µM) | relative viability ([3]; first compound 0.3162 µM) | relative viability ([4]; first compound 0.03162 µM) | relative viability ([4]; first compound 0.1 µM) | relative viability ([4]; first compound 0.3162 µM) | relative viability ([5]; first compound 0.03162 µM) | relative viability ([5]; first compound 0.1 µM) | relative viability ([5]; first compound 0.3162 µM) | relative viability ([6]; first compound 0.03162 µM) | relative viability ([6]; first compound 0.1 µM) | relative viability ([6]; first compound 0.3162 µM)
NCI-H838 | 1.05 | 1.08 | 1.02 | 1.24 | 1.08 | 0.968 | 0.521 | 0.472 | 0.443 | 0.248 | 0.301 | 0.229 | 0.393 | 0.429 | 0.397 | 0.225 | 0.27 | 0.244
NCI-H1355 | 0.994 | 1.04 | 0.941 | 1.23 | 1.26 | 1.26 | 0.352 | 0.387 | 0.338 | 0.504 | 0.547 | 0.551 | 0.418 | 0.497 | 0.434 | 1.07 | 1.13 | 1.08
NCI-H2126 | 1.22 | 1.06 | 1.2 | 1.05 | 1.1 | 1.14 | 0.58 | 0.538 | 0.575 | 0.847 | 0.998 | 0.806 | 0.742 | 0.747 | 0.665 | 0.713 | 0.689 | 0.714
HCC-827 | 1.06 | 1.11 | 1.1 | 1.04 | 0.991 | 0.977 | 0.32 | 0.31 | 0.331 | 0.442 | 0.419 | 0.384 | 0.82 | 0.93 | 0.716 | 0.21 | 0.265 | 0.235
NCI-H661 | 1.07 | 0.978 | 0.973 | 0.88 | 0.915 | 0.645 | 0.559 | 0.626 | 0.582 | 0.35 | 0.35 | 0.36 | 0.726 | 0.714 | 0.647 | 0.932 | 0.925 | 0.904
NCI-H1755 | 0.934 | 0.912 | 0.902 | 1.04 | 0.965 | 0.916 | 0.696 | 0.731 | 0.698 | 0.585 | 0.625 | 0.553 | 0.753 | 0.827 | 0.669 | 0.457 | 0.465 | 0.474
HCC-15 | 1.01 | 1.04 | 1.09 | 1.04 | 0.99 | 0.988 | 0.745 | 0.693 | 0.629 | 0.39 | 0.406 | 0.436 | 0.735 | 0.795 | 0.7 | 0.239 | 0.229 | 0.232
NCI-H2009 | 1.24 | 1.25 | 1.15 | 1.25 | 1.05 | 0.963 | 0.371 | 0.41 | 0.378 | 0.718 | 0.834 | 0.71 | 0.705 | 0.673 | 0.644 | 1.08 | 0.989 | 0.917
NCI-H2023 | 0.807 | 0.806 | 0.836 | 1.03 | 1.28 | 0.975 | 0.228 | 0.228 | 0.203 | 0.322 | 0.398 | 0.293 | 0.426 | 0.539 | 0.37 | 0.259 | 0.275 | 0.232
NCI-H2405 | 1.06 | 1.04 | 1.07 | 1.05 | 0.958 | 0.957 | 0.766 | 0.747 | 0.756 | 0.785 | 0.809 | 0.778 | 0.667 | 0.66 | 0.624 | 1.06 | 1.11 | 1.04
HCC-78 | 0.543 | 0.501 | 0.542 | 0.455 | 0.429 | 0.472 | 0.784 | 0.752 | 0.717 | 0.493 | 0.519 | 0.371 | 0.391 | 0.396 | 0.344 | 0.944 | 0.926 | 0.85
NCI-H441 | 1.08 | 0.945 | 1.27 | 0.496 | 0.43 | 0.371 | 0.264 | 0.291 | 0.253 | 0.48 | 0.654 | 0.678 | 0.588 | 0.767 | 0.607 | 0.274 | 0.291 | 0.222
LCLC-97TM1 | 0.865 | 0.961 | 0.852 | 0.866 | 0.868 | 0.56 | 0.222 | 0.228 | 0.249 | 0.205 | 0.231 | 0.189 | 0.718 | 0.624 | 0.563 | 0.202 | 0.16 | 0.146
LCLC-103H | 0.629 | 0.753 | 0.803 | 1.19 | 1.16 | 1.15 | 0.75 | 0.667 | 0.696 | 0.482 | 0.461 | 0.423 | 0.514 | 0.481 | 0.408 | 0.477 | 0.469 | 0.458
NCI-H2087 | 1.08 | 1.26 | 0.993 | 1.06 | 0.608 | 0.849 | 0.31 | 0.248 | 0.268 | 0.295 | 0.254 | 0.267 | 0.643 | 0.585 | 0.563 | 0.661 | 0.726 | 0.529
NCI-H1734 | 0.87 | 0.989 | 0.856 | 1.04 | 1.15 | 0.93 | 0.493 | 0.514 | 0.508 | 0.289 | 0.288 | 0.238 | 0.597 | 0.618 | 0.53 | 0.401 | 0.447 | 0.45
EMC-BAC-2 | 1.02 | 1.05 | 1.03 | 1.11 | 1.13 | 1.12 | 1.01 | 1.03 | 0.951 | 0.296 | 0.266 | 0.302 | 0.439 | 0.361 | 0.375 | 0.456 | 0.448 | 0.472
LU99A | 0.856 | 0.973 | 0.826 | 1.13 | 1.16 | 1.21 | 0.932 | 1.02 | 0.824 | 0.277 | 0.306 | 0.317 | 0.323 | 0.326 | 0.338 | 0.182 | 0.171 | 0.202
NCI-H3122 | 0.946 | 0.965 | 0.932 | 1.01 | 1 | 0.989 | 0.442 | 0.418 | 0.487 | 0.456 | 0.437 | 0.371 | 0.947 | 0.989 | 0.995 | 0.203 | 0.201 | 0.193
